Results published in US20110184147A1, “ENZYME SUBSTRATE FOR LABELING OF PROTEIN” (priority 2008, published 2011).
Entries after “also recorded” stand apart in the source; their conditions may differ.

What was measured:
MTG [1] = target: T1, MTG (Streptomyces mobaraensis, UniProt P81453); assay: MTG-catalyzed introduction of fluorescent substrates into anti-lysozyme IgG2a antibody; type: biochemical, microbial; settings: substrate 1 mM, mouse anti-lysozyme IgG2a 0.5 mg/ml, MTG 1 U/ml, pH 7, overnight 4° C.; reduced SDS-PAGE
T1 construct: purchased AJINOMOTO (supplied as a gift)
Experimental: A fluorescent substrate (FITC-ε-Acp-QG, FITC-β-Ala-QG, TR-β-Ala-QG or […]), mouse-derived anti-lysozyme IgG2a antibody (monoclonal) and MTG were added to a 10 mM phosphate buffer (pH 7) to give respective final concentrations of 1 mM, 0.5 mg/ml and 1 U/ml. For the purpose of comparison, an MTG-free sample was prepared. The ingredients were thoroughly agitated and the resulting solution was left to stand overnight at 4° C.
After the reaction, the samples were subjected to SDS-PAGE. The gel from SDS-PAGE was examined with a fluorescent imager before it was stained with a CBB dye solution. For the Dns-ε-Acp-QG containing sample, examination was made with a transilluminator.

MTG [2] = target: T1, MTG; assay: MTG-catalyzed introduction of fluorescent substrates into NK6-AP (SDS-PAGE, fluorescent imager); type: biochemical, microbial
Experimental: To perform a binding reaction, the fluorescent substrate (FITC-ε-Acp-QG, FITC-β-Ala-QG, Flc-QG, TR-β-Ala-QG or Dns-ε-Acp-QG), NK6-AP and MTG were added to 10 mM Tris-HCl (pH 8) to give respective final concentrations of 1 mM, 0.5 mg/ml and 1 U/ml and they were thoroughly agitated and the resulting solution was left to stand overnight at 4° C. For the purpose of comparison, an MTG-free sample was prepared.
After the reaction, the samples were subjected to SDS-polyacrylamide gel electrophoresis (SDS-PAGE). The gel from SDS-PAGE was examined with a fluorescent imager before it was stained with Coomassie Brilliant Blue (CBB) in solution. For the sample containing Dns-ε-Acp-QG, examination was made with a transilluminator.
(§1) A study was made using FITC-β-Ala-QG as a fluorescent substrate. The reaction conditions for introducing FITC-β-Ala-QG into NK6-AP were as follows: FITC-β-Ala-QG, NK6-AP and MTG were added to 10 mM Tris-HCl (pH 8) to give respective final concentrations of 0.1 mM, 0.5 mg/ml and 0.1 U/ml and they were thoroughly agitated at 4° C. for 0-5 hours. To trace the binding, the gel from SDS-PAGE was analyzed by a fluorescent imager.
as §1, with “1-1000 μM,” for “0.1 mM,”, “15 minutes. Tracing on” for “0-5 hours. To trace”, “sample after” for “binding,”, “reaction” for “gel from SDS-PAGE”, “performed” for “analyzed”, “the same procedure as in Experiment 2-4.” for “a fluorescent imager.”
Dns-β-Ala-QG-biotin, NK6-AP and MTG were added to 20 mM Tris-HCl (pH 8) to give respective final concentrations of 100 μM, 0.5 mg/ml, and 1 U/ml. For the purpose of comparison, an MTG-free sample was prepared. The ingredients were thoroughly agitated and the resulting solution was left to stand overnight at 4° C. for reaction.
After the reaction, the samples were subjected to SDS-polyacrylamide gel electrophoresis (SDS-PAGE). The gel from SDS-PAGE was examined with a transilluminator before it was stained with Coomassie Brilliant Blue (CBB) in solution.
To a 50 mM buffer whose pH was varied over the range of from 5 to 9, FITC-β-Ala-QG, NK6-AP and MTG were added to give respective final concentrations of 0.1 mM, 0.5 mg/ml, and 0.1 U/ml. These ingredients were well stirred and left to stand at 4° C. for reaction. After 6-hr or 15-minute reaction, the sample was mixed with a sample buffer and heated at 95° C. for 15 minutes to stop the reaction. Thereafter, SDS-polyacrylamide gel electrophoresis (SDS-PAGE) was applied. The gel from SDS-PAGE was stained with Coomassie Brilliant Blue (CBB) and observed with a fluorescent imager.
(§2) To 50 mM Tris-HCl (pH 8), FITC-β-Ala-QG, NK6-AP and MTG were added to give respective final concentrations of 0.1 mM, 0.5 mg/ml, and 0.001-1 U/ml. These ingredients were well stirred and left to stand at 4° C. for reaction. The reaction was stopped and evaluation was made by the same procedures as in Experiment 2-2.
as §2, with “FITC-β-Ala-QG-alkyne,” for “FITC-β-Ala-QG,”, “0.1” for “0.001-1”, “For the purpose of comparison, a MTG-free sample was also prepared. Both samples” for “These ingredients”

BSA (antigen) = assay: Antigen recognizing ability by ELISA (rabbit-derived anti-BSA IgG antibody); type: binding; settings: rabbit-derived anti-BSA IgG antibody (polyclonal) modified by MTG
Experimental: A study was made on samples that were prepared by introducing a fluorescent substrate (FITC-ε-Acp-QG or FITC-β-Ala-QG) into a rabbit-derived anti-BSA IgG antibody (polyclonal) under the same conditions as in Experiment 2-2.
ELISA was performed by the following procedure (FIG. 3-5). • 1) To a Black Plate, 5 mg/ml of BSA (antigen) was added in an amount of 150 µl/well and left to stand overnight at 37° C. • 2) The product of 1) was washed with PBST five times. • 3) Modified anti-BSA IgG antibodies were added in an amount of 60 µl/well and left to stand at room temperature for 5 hours. • 4) The product of 3) was washed with PBST five times. • 5) Examination was made with a fluorescent imager. • 6) A […] sample of AP-labeled anti-rabbit IgG IgG antibodies were added in an amount of 150 µl/well and left to stand at 37° C. for 3 hours. • 7) The product of 6) was washed with TBST five times. • 8) The substrate was added and 10 minutes later, fluorescence derived from the enzymatic reaction was examined with a fluorescent imager.

[3] = NK6-AP 0.5 mg/ml, MTG 0.1 U/ml, pH 8, 4° C., 15 minutes

T1 sequence (P81453 77-407): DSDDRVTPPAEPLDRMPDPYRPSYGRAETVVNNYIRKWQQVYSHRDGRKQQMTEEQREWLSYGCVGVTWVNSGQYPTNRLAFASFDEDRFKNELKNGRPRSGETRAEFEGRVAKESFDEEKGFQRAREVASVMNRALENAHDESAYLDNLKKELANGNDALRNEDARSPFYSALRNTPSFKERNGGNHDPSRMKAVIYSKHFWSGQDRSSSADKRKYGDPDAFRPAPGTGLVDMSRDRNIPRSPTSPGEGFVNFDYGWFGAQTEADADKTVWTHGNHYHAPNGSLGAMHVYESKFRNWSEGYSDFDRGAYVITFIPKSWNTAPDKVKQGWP

NC(=O)CCC(NC(=O)CCNC(=S)Nc1ccc(-c2c3ccc(=O)cc-3oc3cc(O)ccc23)c(C(=O)O)c1)C(=O)NCC(=O)O (stereo not drawn) [FITC-β-Ala-QG]
Reactivity of antibody with fluorescent substrate by MTG catalysis (MTG [1]): H chains of the antibody are modified
pH range with comparable levels of fluorescent intensity (reaction saturated) (MTG [2]; 6-hr reaction, pH 5 to 9, substrate 0.1 mM, MTG 0.1 U/ml, 4° C.): 5-8
pH of rapid introduction into NK6-AP (MTG [2]; 15-min reaction, pH 5 to 9, substrate 0.1 mM, MTG 0.1 U/ml, 4° C.): rapid introduction was achieved at pH values of 6 and 8
Maximum substrate concentration at which reaction progressed (MTG [2]; [3]): 1 mM
Minimum substrate concentration at which reaction progressed and detection was possible (MTG [2]; [3]): 1 µM
Degree of introduction into NK6-AP at 1 U MTG (MTG [2]; NK6-AP, substrate 0.1 mM, pH 8, 4° C.): did not drop
MTG concentration at which an adequately rapid reaction proceeded (MTG [2]; NK6-AP, substrate 0.1 mM, pH 8, 4° C., MTG 0.001-1 U/ml): 0.1 U
Reactivity of MTG for fluorescent substrate (introduction into NK6-AP) (MTG [2]; substrate 1 mM, NK6-AP 0.5 mg/ml, MTG 1 U/ml, 10 mM Tris-HCl pH 8, overnight 4° C.): served as substrates of MTG; also recorded: recognizable as a substrate of MTG
Antigen recognizing ability of modified antibody (BSA (antigen)): maintained its antigen recognizing ability
